Laboratory results published in PubChem BioAssay (NCI).
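Results reflect a 48-hour exposure of cells in 96-well plates to compound at five concentrations. At the GI50, growth is halved. TGI denotes the concentration required for complete inhibition of growth.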

Assays:
Experiment in all cases: NCI anticancer screen, dose series, 48 h
ACHN renal = test system: ACHN renal
KM12 colon = test system: KM12 colon
M14 melanoma = test system: M14 melanoma
NCI-H23 lung = test system: NCI-H23 lung
OVCAR-3 ovarian = test system: OVCAR-3 ovarian
SF-539 CNS = test system: SF-539 CNS
SNB-75 CNS = test system: SNB-75 CNS
TK-10 renal = test system: TK-10 renal

Row | Structure (SMILES) | TGI (ACHN renal) [µM] | TGI (KM12 colon) [µM] | TGI (M14 melanoma) [µM] | TGI (NCI-H23 lung) [µM] | TGI (OVCAR-3 ovarian) [µM] | TGI (SF-539 CNS) [µM] | TGI (SNB-75 CNS) [µM] | TGI (TK-10 renal) [µM] | GI50 (ACHN renal) [µM] | GI50 (KM12 colon) [µM] | GI50 (M14 melanoma) [µM] | GI50 (NCI-H23 lung) [µM] | GI50 (OVCAR-3 ovarian) [µM] | GI50 (SF-539 CNS) [µM] | GI50 (SNB-75 CNS) [µM] | GI50 (TK-10 renal) [µM]
1 | O=C(CC(=O)C1CCOC1=O)C(=O)Nc1ccc(Cl)cc1Cl (centres undefined) | > 100 | > 100 | > 100 | > 100 | > 100 | > 100 | > 100 | > 100 | – | – | – | – | – | – | – | –
2 | COC(=O)C(Cc1nc2ccc(Cl)cc2[nH]c1=O)/C(=N/NC(N)=O)C(=O)Nc1ccc(Cl)cc1 (centres undefined) | > 100 | > 100 | > 100 | > 100 | > 100 | > 100 | > 100 | > 100 | – | – | – | – | – | – | – | –
3 | COCCOCC(=O)N(CCn1ccc(NC(c2ccccc2)(c2ccccc2)c2ccccc2)nc1=O)CCn1cnc2nc(N)[nH]c(=O)c21 | > 100 | > 100 | > 100 | > 100 | > 100 | > 100 | > 100 | > 100 | – | – | – | – | – | – | – | –
4 | Cn1c2c(c3ccccc31)CCN(CCCCN1CCN(c3cccc(Cl)c3)CC1)C2=O | 37.6 | – | 10.7 | 27.4 | 34 | 26.5 | 9.61 | 25.1 | – | – | – | – | – | – | – | –
5 | CCCCCCCCCCCCN(O)C(=O)c1ccccc1 | > 100 | > 100 | 82.2 | 52.2 | > 100 | 63.6 | 82.7 | > 100 | – | – | – | – | – | – | – | –
6 | O=C(O)Cn1c(=O)[nH]c(=O)c2c1ncn2Cc1ccccc1 | > 100 | > 100 | > 100 | > 100 | > 100 | > 100 | > 100 | > 100 | – | – | – | – | – | – | – | –
7 | Cc1ccc2[nH]c3c(ncc4[nH]c5ccccc5c43)c2c1 | 30.3 | 29.6 | 35.8 | > 10 | > 10 | 30.7 | 28.5 | 37.6 | – | – | – | – | – | – | – | –
8 | CN(C)c1n/c(=N/c2ncn[nH]2)ss1 | > 100 | > 100 | > 100 | > 100 | – | > 100 | > 100 | > 100 | – | – | – | – | – | – | – | –
9 | CC(C)(C)C(=O)O[C@@H]1COC2C(O)COC21 (some centres undefined) | > 100 | > 100 | > 100 | > 100 | > 100 | > 100 | > 100 | > 100 | – | – | – | – | – | – | – | –
10 | N#CC1(C=O)c2ccccc2C=CN1C(=O)c1ccccc1 (centres undefined) | > 100 | > 100 | 92.4 | > 100 | 52.8 | – | 66.9 | > 100 | – | – | – | – | – | – | – | –
11 | CC(=O)[O-].O=C([CH-]C(=O)c1ccccc1)c1ccccc1.O=C([CH-]C(=O)c1ccccc1)c1ccccc1.[Y+3] | 22.9 | 24.5 | 18.9 | 11.1 | 15.8 | 37 | 7.42 | 66.5 | 5.52 | 4.36 | 5.34 | 2.2 | 3.12 | 8.67 | 3.1 | 8.27
12 | COc1ccc(/C(=N/NC(N)=O)C(c2ccc(OC)cc2)C2C(=O)Oc3ccccc32)cc1 (centres undefined) | – | > 100 | > 100 | > 100 | > 100 | > 100 | > 100 | – | – | – | – | – | – | – | – | –
13 | COc1cc([C@@H]2c3cc4c(cc3[C@@H](NC(=O)c3cccc(F)c3)C3COC(=O)[C@@H]32)OCO4)cc(OC)c1O (some centres undefined) | 1.85 | 7.2 | 6.72 | 3.18 | 17.4 | 1.7 | 5.24 | 17.1 | – | – | – | – | – | – | – | –
14 | CN(C)c1ccc(/C=N\N2C(=O)c3ccccc3C2=O)cc1 | > 100 | > 100 | > 100 | > 100 | > 100 | > 100 | > 100 | > 100 | – | – | – | – | – | – | – | –
15 | O=C1C2c3[nH]c4ccccc4c3[C@@H]3CCCCC3C2C(=O)N1c1ccccc1 (some centres undefined) | 81.9 | 39.3 | 30 | 39.2 | 30.1 | – | 71.5 | 68.7 | – | – | – | – | – | – | – | –
16 | c1ccc(COCC2OC3c4ccccc4COC3C2OCc2ccccc2)cc1 (centres undefined) | > 100 | > 100 | > 100 | > 100 | > 100 | > 100 | > 100 | > 100 | – | – | – | – | – | – | – | –
17 | COc1ccc(CNc2nc3c(NC(C)=O)cc(C(F)(F)F)cc3nc2-c2ccccc2)cc1OC | – | > 100 | > 100 | > 100 | > 100 | > 100 | 4.48 | > 100 | – | – | – | – | – | – | – | –
18 | COC(OC)[C@@H](C)[C@H](O)[C@](C)(O)C1OC(C)(C)OC(C(C)C=C(C)C)C1C (some centres undefined) | > 100 | > 100 | > 100 | > 100 | > 100 | > 100 | > 100 | > 100 | – | – | – | – | – | – | – | –
19 | O=C([O-])c1ccc(C(=O)[O-])cc1.O=C([O-])c1ccc(C(=O)[O-])cc1.[Mo+2].[Mo+2] | > 100 | > 100 | > 100 | > 100 | > 100 | > 100 | – | > 100 | > 100 | > 100 | > 100 | > 100 | > 100 | > 100 | – | > 100
